Experimental data taken from patent US7998682B2, “Method for assessing atherosclerosis by measuring expression of FOS or DUSP1 in monocytes” (The United States of America as represented by the …, priority 2004, dated 2011).

What was measured:
[1] = test system: DUSP1; assay: RT-PCR of DUSP1 in human monocytic cell lines stimulated with PMA; format: cell-based; details: five human monocytic cell lines, 20 nM PMA
[2] = test system: FOS; assay: RT-PCR of FOS in human monocytic cell lines stimulated with PMA; format: cell-based; details: five human monocytic cell lines, 20 nM PMA
From the text: FIGS. 2A-2D are digital images and graphs showing expression of FOS in human carotid plaque macrophages and in activated human monocytic cells and ApoE KO mouse splenocytes. FIG. 2A is a digital image of fresh frozen sections of human carotid artery plaques stained with hematoxylin and eosin (H&E), negative control immunoglobulin (Control Ig) and antibodies against CD14 or FOS. CD14+ staining of macrophages colocalizes with FOS immunoreactivity (25× magnification). Note that the CD14 staining gives a more diffuse appearance consistent with cell surface plasma membrance staining while the FOS pattern is more punctate consistent with nuclear localization. For the digital image shown as FIG. 2B, from four patients, the corresponding mononuclear cell (MNC), circulating monocyte (Mono) and carotid plaque purified macrophage (Mac) preparations were used for quantitative RT-PCR. The normalized expression levels shown were obtained as described in FIG. 1A. Note the progressively higher pattern of candidate gene expression associated with increasing concentration of monocytes and activation into macrophages. […] Values expressed as mean±SE, P=0.04. […]
Quantitative real-time RT-PCR: mRNA from lystates (10^5 cells) were purified by binding to poly(dT) magnetic beads (Dynal Biotech Inc. Brown Deer, Wis.) and reverse transcribed using Superscript II (Invitrogen, Carlsbad, Calif.). […]

[3] = test system: THP1 cells; assay: Monocyte adhesion of PMA-stimulated THP1 cells to plastic substratum; format: cell-based, human
Method: (§1) FIGS. 3A-3B are digital images and graphs showing the functional effects of statin and FOS siRNA inhibition on monocyte activation by PMA. FIG. 3A is a bar graph and a digital image wherein THP1 cells were pretreated with simvastatin and/or mevalonate for 20 hours prior to stimulation with 2 nM PMA. Cell adhesion was determined 4 hours after PMA stimulation; cumulative MCP-1 release into medium was assayed 24 hours after PMA stimulation. […] P values for the difference in cell adhesion and MCP-1 release after statin treatment were 0.004 and 0.04, respectively. FIG. 3B is a bar graph and a digital image wherein THP1 cells were stimulated with 2 nM PMA 30 minutes after siRNA transfection for 4 hours. Control (−) cells were mock transfected without siRNA as a transfection control. […]
(§2) Monocyte function: For pretreatment experiments, cells were incubated with 10 μM simvastatin and/or 1 mM mevalonate for 20 hours prior to stimulation with phorbol 12-myristate 13-acetate (PMA, Sigma, St. Louis, Mo.). Cell adhesion was determined by gently washing off the nonadherent cells twice and pooling them. […] Viable nonadherent and adherent cells were counted using Trypan Blue dye. Cumulative MCP-1 release into the medium was determined using the MCP-1 immunoassay kit (R& D Systems, Minneapolis, Minn.) after 24 hours PMA stimulation.

[4] = test system: MCP-1; assay: Cumulative MCP-1 release into medium by PMA-stimulated THP1 cells (immunoassay); format: cell-based, human
Method: as §1, §2

[5] = test system: FOS protein; assay: FOS protein level by Western blot in PMA-stimulated THP1 cells; format: cell-based, human; details: 1 mM mevalonate added with simvastatin, 20 hours before PMA
[6] = 1 mM mevalonate in medium with simvastatin, 20 hours before PMA

Which “DUSP1 expression after PMA stimulation” value [1] does the source give for CCCCCCCCCCCCCC(=O)O[C@@H]1[C@@H](C)[C@@]2(O)[C@@H](C=C(CO)C[C@]3(O)C(=O)C(C)=C[C@@H]23)[C@@H]2C(C)(C)[C@]12OC(C)=O [PMA, phorbol 12-myristate 13-acetate] here?
Its value is “repressed in two of the cell lines”.

And the “FOS expression after PMA stimulation” value [2]?
Its value is “uniformly induced in all five cell lines”.

CC(O)(CCO)CC(=O)O (stereo not shown) [mevalonate] was tested. Which “effect on statin-induced reduction in monocyte adhesion” value [3, 6] did it give?
Its value is “specifically reversed”.

And the “effect on statin-induced reduction in MCP-1 release” value [4, 6]?
Its value is “specifically reversed”.

And the “effect on statin-induced reduction in FOS protein” value [5]?
The value was “reversed”.

CCC(C)(C)C(=O)O[C@H]1C[C@@H](C)C=C2C=C[C@H](C)[C@H](CC[C@@H]3C[C@@H](O)CC(=O)O3)[C@H]21 [statins, simvastatin] was tested. Which “reduction in monocyte adhesion to plastic substratum compared to control” value ([3]; 10 μM simvastatin pretreatment 20 hours, 2 nM PMA, 4 hours after PMA, P=0.004) did it give?
The value was “approximately 70%”.

And the “reduction in MCP-1 release into medium compared to control” value ([4]; 10 μM simvastatin pretreatment 20 hours, 2 nM PMA, 24 hours after PMA, P=0.04)?
The value was “approximately 70%”.
